{"source": "paper PMC8684500", "about": "“Substrate specificity of Chondroitinase ABC I based on analyses of biochemical reactions and crystal structures in complex with disaccharides” (Glycobiology, 2021)", "assay_in_all_cases": "X-ray crystal structure, soaking, […] Å", "format_in_all_cases": "binding", "key": {"[1]": {"molecular_target": "T1, Chondroitinase ABC I (cABC-I) (Proteus vulgaris, UniProt P59807)", "T1 construct": "native purification from P. vulgaris cells (CSC as inducer); mature monomer, 997 residues; domains 25-234, 235-617, 618-1021", "T1 sequence (P59807 25-1021)": "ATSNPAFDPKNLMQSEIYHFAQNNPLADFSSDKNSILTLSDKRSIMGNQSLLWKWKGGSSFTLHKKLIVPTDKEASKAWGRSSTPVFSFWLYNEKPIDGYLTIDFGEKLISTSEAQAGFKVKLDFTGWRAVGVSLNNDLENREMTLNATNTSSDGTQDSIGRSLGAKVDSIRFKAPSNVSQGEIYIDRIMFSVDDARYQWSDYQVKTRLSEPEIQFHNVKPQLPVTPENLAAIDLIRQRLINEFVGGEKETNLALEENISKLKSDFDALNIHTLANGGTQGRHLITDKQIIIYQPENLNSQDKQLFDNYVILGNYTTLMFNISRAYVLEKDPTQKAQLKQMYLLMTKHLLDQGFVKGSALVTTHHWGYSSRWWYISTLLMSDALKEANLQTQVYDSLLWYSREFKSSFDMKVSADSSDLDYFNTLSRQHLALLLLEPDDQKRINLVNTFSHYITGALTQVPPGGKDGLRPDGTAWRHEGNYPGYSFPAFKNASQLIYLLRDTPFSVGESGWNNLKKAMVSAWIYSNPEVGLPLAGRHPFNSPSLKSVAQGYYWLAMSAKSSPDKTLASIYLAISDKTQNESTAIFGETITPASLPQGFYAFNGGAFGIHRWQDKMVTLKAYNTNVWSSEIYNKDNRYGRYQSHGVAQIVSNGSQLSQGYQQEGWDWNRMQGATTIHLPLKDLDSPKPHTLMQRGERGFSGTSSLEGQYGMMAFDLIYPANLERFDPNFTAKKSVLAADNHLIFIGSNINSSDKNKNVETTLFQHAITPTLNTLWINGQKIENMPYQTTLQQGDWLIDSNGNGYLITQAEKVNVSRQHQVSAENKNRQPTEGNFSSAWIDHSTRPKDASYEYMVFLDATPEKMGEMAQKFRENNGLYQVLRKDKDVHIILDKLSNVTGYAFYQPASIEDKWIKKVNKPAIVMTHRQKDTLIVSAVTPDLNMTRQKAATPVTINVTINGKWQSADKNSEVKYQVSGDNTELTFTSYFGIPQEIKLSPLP", "conditions": "soaked at 100 mM; pH 7.5; two molecules in active site cleft"}, "[2]": {"molecular_target": "T1, Chondroitinase ABC I (cABC-I)", "conditions": "soaked at 100 mM; pH 7.5; three molecules in active site cleft"}, "[3]": {"molecular_target": "T1, Chondroitinase ABC I (cABC-I)", "conditions": "soaked at 100 mM; pH 7.5; two molecules in active site cleft", "remark": "listed apart in the source"}}, "data": [{"smiles": "CC(=O)N[C@H]1C(O)O[C@H](CO)[C@H](O)[C@@H]1O[C@@H]1OC(C(=O)O)=C[C@H](O)[C@H]1O", "note": "(stereo partly drawn) [ΔDi-0S]", "values": [{"measurement": "X-ray crystal structure, soaking, 2.50 Å", "setting": "[1]", "result": "7EIS, cABC-I in complex with ΔDi-0S"}]}, {"smiles": "CC(=O)N[C@H]1C(O)O[C@H](CO)[C@H](OS(=O)(=O)O)[C@@H]1O[C@@H]1OC(C(=O)O)=C[C@H](O)[C@H]1O", "note": "(stereo partly drawn) [ΔDi-4S]", "values": [{"measurement": "X-ray crystal structure, soaking, 1.80 Å", "setting": "[2]", "result": "7EIQ, cABC-I in complex with ΔDi-4S"}]}, {"smiles": "CC(=O)N[C@H]1C(O)O[C@H](COS(=O)(=O)O)[C@H](O)[C@@H]1O[C@@H]1OC(C(=O)O)=C[C@H](O)[C@H]1O", "note": "(stereo partly drawn) [ΔDi-6S]", "values": [{"measurement": "X-ray crystal structure, soaking, 1.92 Å", "setting": "[3]", "result": "7EIR, cABC-I in complex with ΔDi-6S"}]}]}
